From patent publication US20220202811A1, “TREATMENT FOR RETINOIC ACID RECEPTOR-RELATED ORPHAN RECEPTOR Ɣ (RORƔ)-DEPENDENT CANCERS” (The Regents of the University of California, priority 2019, published 2022)
Entries after “also recorded” stand apart in the source; their conditions may differ.

Tests used:
[1] = tested on: human pancreatic cancer Fast Growing (FG) cells; test: FG organoid assay; format: cell-based
Procedure: Similarly, the effects of JTE-151 at different doses were examined on human pancreatic cancer Fast Growing (FG) cells using the organoid assay (FIG. 69). Three doses of JTE-151 were tested: 0.3 μM, 1 μM, and 3 μM.

PDX1535 xenograft = test: PDX1535 xenografts in mice; format: in vivo, human; conditions: JTE-151 90 mg/kg once per day
Excerpt: (§1) Finally, the impact of JTE-151 was examined in vivo on mice bearing primary patient-derived pancreatic cancer xenografts (FIGS. 70-78). […] FIGS. 70-72 show 3 rounds of treatment in an experiment using mice bearing PDX1356 xenographs. The horizontal axis of the first panel in each of FIGS. 70-72 represents days of treatment, and the vertical axis represents tumor volume. The horizontal axis of each of the remaining panels represents the target (vehicle vs. JTE-151 mouse), and the vertical axis represents the specified measurement. JTE-151 was given at the regimen as specified in the figures. For example, in the first round (FIG. 70), JTE-151 was given at 90 mg/kg body weight once per day for the first 25 days, then twice per day from day 26 though day 40.
Two other primary patient-derived xenografts, PDX1535 (FIGS. 74 and 75) and PDX1424 (FIGS. 76 and 77), were tested using JTE-151 at 90 mg/kg once per day. […] Considering the reduced tumor mass and cell numbers, the absence of a significant change in tumor volume may be due to necrotic cells that remained for a while post drug treatment.

PDX1356 xenografts = PDX1356 xenografts in mice; format: in vivo, human
Excerpt: as §1

[2] = tested on: primary patient-derived PDX1535 organoids; test: PDX1535 organoid assay; format: cell-based, human
Procedure: PDX1535 organoids were derived from a patient of pancreatic cancer. Primary patient organoids were established by digesting patient-derived xenografts for 1 hour at 37° C. in RPMI containing 2.5% FBS, 5 mg/ml Collagenase II, and 1.25 mg/ml Dispase II, followed by passage through a […] mesh filter. Cells were plated at a density of 1.5×10^5 cells per 50 μl Matrigel. After domes were solidified, growth medium was added as follows: RPMI containing 50% Wnt3a conditioned media, 10% RSpondin1-conditioned media, 2.5% FBS, 50 ng/ml EGF, 5 mg/ml Insulin, 12.5 ng/ml hydrocortisone, and 14 μM Rho Kinase Inhibitor. After establishment, organoids were passaged and maintained. Briefly, organoids were isolated using Cell Recovery Solution (Corning 354253), then dissociated into single cell suspension with TrypLE Express (ThermoFisher 12604) supplemented with 25 μg/ml DNase I (Roche) and 14 μM Rho Kinase Inhibitor (Y-27632, Sigma). Cells were split 1:2 into 20 μl domes plated on pre-warmed 48-well plates. Domes were incubated at 37° C. for 5 min, then covered with human complete organoid feeding media without Wnt3a-conditioned media. […] The organoids were imaged and measured at the end of treatment. […] Moreover, the anti-cancer effect of JTE-151 was determined in an organoid assay using pancreatic cancer cells derived from mice bearing primary patient-derived xenografts.

[3] = tested on: primary murine PanIN derived organoids; test: PanIN derived organoids; format: cell-based
Procedure: Moreover, RORγ inhibitor SR2211 can block the growth of benign pancreatic intraepithelial neoplasia (PanIN) lesions. The effect of SR2211 was tested on dissociated primary murine PanIN derived organoids.

[4] = tested on: Msi2-reporter+ stem cells; test: live imaging of REM2-KP^f/fC tumors; format: in vivo, mouse
Procedure: For imaging, mice were anesthetized by intraperitoneal injection of ketamine and xylazine (100/20 mg/kg). In order to visualize blood vessels and nuclei, mice were injected retro-orbitally with AlexaFluor 647 anti-mouse CD144 (VE-cadherin) antibody and Hoechst 33342 immediately following anesthesia induction. After 25 minutes, pancreatic tumors were removed and placed in HBSS containing 5% FBS and 2 mM EDTA. 80-150 μm images in 1024×1024 format were acquired with an HCX APO L20× objective on an upright Leica SP5 confocal system using Leica LAS AF 1.8.2 software. GFP cluster sizes were measure using ImageJ 1.51s software. 2 mice per treatment group were analyzed in this study; 6-10 frames were analyzed per mouse.

[5] = tested on: KP^f/fC derived flank tumors; test: KP^f/fC flank tumors in immunocompetent mice; format: in vivo, mouse
human PDAC cells = test: human PDAC (FG) flank tumors in immunocompromised mice; format: in vivo; conditions: compared to vehicle-treatment
Procedure: Subcutaneous tumor dimensions were measured with calipers 1-2× weekly.

KP^f/fC tumors = conditions: chimeric wild type versus RORγ recipient mice
Fast Growing (FG) cells = test: Fast Growing (FG) cell xenografts in mice; format: in vivo, human
Excerpt: FIG. 45 is a compilation of all data from mice bearing PDX or FG cancer xenographs, including PDX1424, PDX1444, and FG.

[6] = first round: JTE-151 90 mg/kg once per day for 25 days, then twice per day to day 40
[7] = third round: JTE-151 90 mg/kg once per day
[8] = SR2211 in combination with gemcitabine
[9] = AZD-0284 in combination with gemcitabine

With `Cc1ccc(NC(=O)C[C@H](CCC(=O)O)c2noc([C@H]3C[C@@H](CC(C)(C)C)C3)c2C2CC2)c(Cl)c1` [JTE-151, (4S)-6-[(2-chloro-4-methylphenyl)amino]-4-{4-cyclopropyl-5-[cis-3-(2,2-dimethylpropyl)cyclobutyl]isoxazol-3-yl}-6-oxohexanoic acid] the FG organoid growth ([1]; JTE-151 (0.3 μM, 1 μM, 3 μM) in combination with 0.05 nM gemcitabine) was “significant inhibition”, the FG organoid growth ([1]; JTE-151 alone at 0.3 μM, 1 μM, and 3 μM) was “significant inhibition” and the “EpCam+ tumor epithelial cells” value (PDX1535 xenograft) was “trend of decreased”. For the same compound, the “EpCam+/CD133+ tumor stem cells” value (PDX1535 xenograft) was “trend of decreased”, the total cell counts (PDX1535 xenograft) was “trend of decreased” and the tumor mass (PDX1535 xenograft) was “trend of decreased”. For the same compound, the “tumor volume or growth rate” value (PDX1535 xenograft) was “did not exhibit any significant difference”, the tumor growth rate (PDX1356 xenografts; 3 experiments, slope compared to control (FIG. 73)) was “generally slower” and the “EpCam+ tumor epithelial cells” value (PDX1356 xenografts; [6]) was “lower”. For the same compound, the “EpCam+/CD133+ tumor stem cells” value (PDX1356 xenografts; [6]) was “lower”, the cell count (PDX1356 xenografts; [6]) was “decreased” and the tumor growth (PDX1356 xenografts; [6]) was “reduced”. For the same compound, the “EpCam+ tumor epithelial cells” value (PDX1356 xenografts; [7]) was “reduced”, the “EpCam+/CD133+ tumor stem cells” value (PDX1356 xenografts; [7]) was “reduced” and the organoid volume ([2]; 3 μM JTE-151 alone (FIG. 63)) was “visibly reduced; also recorded: inhibited”. For the same compound, the organoid volume ([2]; 3 μM JTE-151 and 0.05 nM gemcitabine combination (FIG. 63)) was “visibly reduced; also recorded: inhibited” and the organoid growth ([2]; JTE-151 alone at 0.3 μM, 1 μM, and 3 μM (FIG. 64)) was “significant inhibition”.

With `OC(c1ccc(-c2ccc(CN3CCN(Cc4ccncc4)CC3)cc2)c(F)c1)(C(F)(F)F)C(F)(F)F` [SR2211] the organoid number [3] was “reduced”, the organoid volume [3] was “reduced” and the “necrosis in surrounding tissues” value ([4]; mouse, in vivo) was “no increased necrosis”. The “large stem cell clusters” value ([4]; within 1 week of treatment) was “striking depletion”, the “depletion in CD133+ cells” value ([5]; SR2211 alone) was 3 fold and the “depletion in Msi+ cells” value ([5]; SR2211 alone) was 3 fold. For the same compound, the “depletion of CD133+ cells” value [5, 8] was 11 fold, the “depletion of Msi2+ cells” value [5, 8] was 6 fold and the “reduction in tumor growth” value (human PDAC cells) was about 6 fold. The “impact on tumor growth, cellularity, and stem cell content” value (KP^f/fC tumors) was “equivalent”.

For `CC(=O)N1Cc2cc(S(C)(=O)=O)ccc2[C@@H]1C(=O)Nc1ccc(C(O)(C(F)(F)F)C(F)(F)F)cc1` [AZD-0284], the “EpCam+/CD133+ tumor stem cells” value (Fast Growing (FG) cells; 90 mg/kg AZD-0284) was “decrease”, the total cell number (Fast Growing (FG) cells; 90 mg/kg AZD-0284) was “decrease” and the “EpCam+/CD133+ tumor stem cells” value (Fast Growing (FG) cells; [9]) was “decrease”. The total cell number (Fast Growing (FG) cells; [9]) was “decrease”, the “decrease in organoid volume compared to control” value (shortened to “decrease in organoid volume”) ([2]; 3 μM AZD-0284 + 0.025 nM gemcitabine) was 2.81 fold and the organoid volume ([2]; 3 μM AZD-0284 and 0.04 nM gemcitabine) was “significant reduction; also recorded: significant inhibition”. For the same compound, the “decrease in organoid volume” value ([2]; 6 μM AZD-0284 + 0.025 nM gemcitabine) was 4.72 fold, the organoid growth ([2]; 6 μM AZD-0284 alone) was “visibly inhibited” and the organoid growth ([2]; 6 μM AZD-0284 in combination with 0.025 nM gemcitabine) was “visibly inhibited”. The “decrease in organoid volume” value ([2]; 12 μM AZD-0284 + 0.025 nM gemcitabine) was 6.90 fold and the organoid volume ([2]; AZD-0284 alone, 6 μM or 12 μM (FIG. 37)) was “significantly reduced”.
